From patent publication US20040048834A1, “Antitumoral compounds” (priority 2000, published 2004)
Like-named read-outs stand apart in the source and are kept apart here.

Legend:
Format in all cases: cell-based
[1] = system: Hut 78; assay: Cytotoxicity MTS, leukemias/lymphomas, Hut 78; details: 4-Parameter Curve Fit, NA = not active, read-out: Cytotoxicity IC50 Lymphoma (Cutaneous T cell) Hut 78
[2] = system: ARH-77; assay: Cytotoxicity MTS, leukemias/lymphomas, ARH-77; details: 4-Parameter Curve Fit, NA = not active, read-out: Cytotoxicity IC50 Leukemia (Plasma cell) ARH-77
[3] = system: HL-60; assay: Cytotoxicity MTS, leukemias/lymphomas, HL-60; details: read-out: Cytotoxicity IC50 AML (acute promyelocytic leukemia) HL-60, 4-Parameter Curve Fit, NA = not active, read-out: Cytotoxicity IC50 ALL (Promyelocytic leukemia) HL-60
[4] = system: RAMOS; assay: Cytotoxicity MTS, leukemias/lymphomas, RAMOS; details: 4-Parameter Curve Fit, NA = not active, read-out: Cytotoxicity IC50 Lymphoma (Burkitts B cell) RAMOS
[5] = system: H9; assay: Cytotoxicity MTS, leukemias/lymphomas, H9; details: 4-Parameter Curve Fit, NA = not active, read-out: Cytotoxicity IC50 Lymphoma (T cell) H9
[6] = system: U-937; assay: Cytotoxicity MTS, leukemias/lymphomas, U-937; details: 4-Parameter Curve Fit, NA = not active, read-out: Cytotoxicity IC50 Lymphoma (Histiocytic) U-937
[7] = system: P3HR1; assay: Cytotoxicity MTS, leukemias/lymphomas, P3HR1; details: 4-Parameter Curve Fit, NA = not active, read-out: Cytotoxicity IC50 Lymphoma (Burkitts ascites) P3HR1
[8] = system: K562; assay: Cytotoxicity MTS, leukemias/lymphomas, K562; details: 4-Parameter Curve Fit, NA = not active, read-out: Cytotoxicity IC50 CML (Chronic myelogenous) K562
[9] = system: Molt 3; assay: Cytotoxicity MTS, leukemias/lymphomas, Molt 3; details: 4-Parameter Curve Fit, NA = not active, read-out: Cytotoxicity IC50 ALL (Acute lymphobalstic) Molt 3
[10] = system: MC116; assay: Cytotoxicity MTS, leukemias/lymphomas, MC116; details: 4-Parameter Curve Fit, NA = not active, read-out: Cytotoxicity IC50 Lymphoma (undifferentiated) MC116
[11] = system: A549; assay: Cytotoxicity of spisulosine analogs, A549 (after Berjeron et al); details: A549; methodology after Berjeron et al; NA=not active; read-out: Cytotoxicity IC50 A549
[12] = system: HT29; assay: Cytotoxicity of spisulosine analogs, HT29 (after Berjeron et al); details: HT29; methodology after Berjeron et al; NA=not active; read-out: Cytotoxicity IC50 HT29
[13] = system: DU145; assay: Cytotoxicity of spisulosine analogs, DU145 (after Berjeron et al); details: methodology after Berjeron et al, NA=not active, read-out: Cytotoxicity IC50 DU145
[14] = system: MEL28; assay: Cytotoxicity of spisulosine analogs, MEL28 (after Berjeron et al); details: methodology after Berjeron et al, NA=not active, read-out: Cytotoxicity IC50 MEL28
[15] = system: P388; assay: Cytotoxicity of spisulosine analogs, P388 (after Berjeron et al); details: methodology after Berjeron et al, NA=not active, read-out: Cytotoxicity IC50 P388
[16] = system: FADU; assay: Cytotoxicity MTS, solid tumors, Pharynx FADU; details: 4-Parameter Curve Fit, NA = not active
[17] = system: Hs746t; assay: Cytotoxicity MTS, solid tumors, Gastric Hs746t; details: 4-Parameter Curve Fit, NA = not active
[18] = system: SK-HEP-1; assay: Cytotoxicity MTS, solid tumors, Liver SK-HEP-1; details: 4-Parameter Curve Fit, NA = not active
[19] = system: MX-1; assay: Cytotoxicity MTS, solid tumors, Breast MX-1; details: 4-Parameter Curve Fit, NA = not active
[20] = system: 786-O; assay: Cytotoxicity MTS, solid tumors, Renal 786-O; details: 4-Parameter Curve Fit, NA = not active
[21] = system: SK-OV-3; assay: Cytotoxicity MTS, solid tumors, Ovary SK-OV-3; details: 4-Parameter Curve Fit, NA = not active
[22] = system: HT-29; assay: Cytotoxicity MTS, solid tumors, Colon HT-29; details: 4-Parameter Curve Fit, NA = not active
[23] = system: A549; assay: Cytotoxicity MTS, solid tumors, NSCL A549; details: 4-Parameter Curve Fit, NA = not active

SMILES	IC50 [11] [nM]	IC50 [12] [nM]	IC50 ([13]; DU145) [nM]	IC50 ([14]; MEL28) [nM]	IC50 ([15]; P388) [nM]	other results
CCCCCCCCCCCCCCCC(O)C(C)N (stereo not shown)						IC50 [1]: 2160 nM; IC50 [2]: 682 nM; IC50 [3]: 425 nM; IC50 [4]: 2140 nM; IC50 [5]: 1550 nM; IC50 [6]: 981 nM; IC50 [7]: 3370 nM; IC50 [8]: 784 nM
CCCCCCCCCCCCCCCCC(O)C(C)N (stereo not shown)						IC50 [1]: 10600 nM; IC50 [9]: 1120 nM; IC50 [6]: 29.8 nM; IC50 [10]: 8820 nM
CCCCCCCCCCCCCCCCCC(O)C(C)N (stereo not shown)						IC50 [9]: 7610 nM; IC50 [10]: 10900 nM
CCCCCCCCCCCCCCCC(=O)C(N)CC (stereo not shown)						IC50 [4]: 1210 nM; IC50 [5]: 5980 nM; IC50 [9]: 581 nM
CCCCCCCCCCCCCCCCCC[C@@H](O)[C@H](C)N [drawing 52, (2S,3R)-2-Amino-3-heneicosanol]	305	305				IC50 ([13]; Homo sapiens, DU-145, DU145): 305 nM; IC50 ([14]; Homo sapiens, SK-MEL-28, MEL28): 305 nM; IC50 ([15]; Mus musculus, P388, P388): 153 nM
CCCCCCCCCCCCCCC[C@@H](O)[C@@H](N)CC [drawing 58, (3S,4R)-3-Amino-4-nonadecanol]	33.4	33.4				IC50 ([13]; Homo sapiens, DU-145, DU145): 33.4 nM; IC50 ([14]; Homo sapiens, SK-MEL-28, MEL28): 334 nM; IC50 ([15]; Mus musculus, P388, P388): 33.4 nM
CCCCCCCCCCCCCCCC(O)C(N)CC (stereo not shown) [drawing 79]	334	334	334	334	334	
CCCCCCCCCCCCCC[C@@H](O)[C@H](C)N [drawing 101]	163	163	163	327	163	
CCCCCCCCCCCCCCCC(=O)[C@H](C)N [drawing 102]	156	31.3	31.3	156	31.3	
CCCCCCCCCCCCCCCCC(=O)[C@H](C)N [drawing 104]	150	150	150	299	150	
CCCCCCCCCCCCCCCCCC(=O)[C@H](C)N [drawing 105]	144	144	144	287	144	
CCCCCCCCCCCCCCCC(=O)[C@@H](N)CC [drawing 106]	29.9	29.9	29.9	299	29.9	
CCCCCCCCCCCCCCC[C@@H](O)[C@@H](N)CF [drawing 111]	32.9	32.9	329	329	32.9	
CCCCCCCCCCCCCCC[C@@H](O)[C@H](C)N [drawing 112]						IC50 [16]: 249 nM; IC50 [17]: 395 nM; IC50 [18]: 297 nM; IC50 [19]: 1950 nM; IC50 [20]: 138 nM; IC50 [21]: 702 nM; IC50 [22]: 128 nM; IC50 [23]: 85.7 nM
